Where two headings read alike, the source gives them in different places.
Assay: SAD study in healthy volunteers: PK in plasma, whole blood, red blood cells
Type: in vivo, human
Conditions: human; for half-life: read-out: t1/2 (converted); for Tmax: median
Protocol: To evaluate the safety and tolerability of single ascending doses of Compound I, 48 healthy volunteers (42 in the fasted state and 6 in the fed state) aged 18 to 55 years old were administered single ascending doses (50 mg to 2200 mg) of Compound I, while 16 healthy volunteers (14 in the fasted state and 2 in the fed state) aged 18 to 55 years old were administered placebo in a double blind, randomized, sequential manner.
Whole blood pharmacokinetic (PK) parameters, using actual sample collection times, and hemoglobin occupancy after single ascending dose are shown in Table 5 (containing data from both healthy volunteers and SCD subjects) and Table 6 (containing data from only healthy volunteer subjects).

Which Cmax (whole blood, 2200 mg, HV single 2200 mg, mean) does the source give for O=Cc1c(O)cccc1OC[C@@H]1COCCN1C(=O)c1cccnc1CCO [Compound I, (S)-2-hydroxy-6-((4-(2-(2-hydroxyethyl)nicotinoyl)morpholin-3-yl)methoxy)benzaldehyde] here?
Its Cmax is 390 µg/mL.

And the AUC(0-t) (whole blood, 2200 mg, HV single 2200 mg, whole blood, mean, blood collected up to day 7, read-out: AUC0-t)?
The AUC(0-t) was 48000 µg·h/mL.

What about the Cmax (whole blood, po, 50 mg, HV single oral 50 mg (Cohort 1), geometric mean) of the same compound?
Its Cmax is 8 µg/mL.

What about the AUC(0-t) (whole blood, po, 50 mg, HV single oral 50 mg (Cohort 1), whole blood, geometric mean, read-out: AUClast) of the same compound?
The AUC(0-t) was 6810 µg·h/mL.

What about the half-life (whole blood, po, 50 mg, HV single oral 50 mg (Cohort 1), whole blood, geometric mean) of the same compound?
The half-life was 683 h.

What about the Cmax (whole blood, po, 100 mg, HV single oral 100 mg (Cohort 2), geometric mean) of the same compound?
The Cmax was 17.3 µg/mL.

And the AUC(0-t) (whole blood, po, 100 mg, HV single oral 100 mg (Cohort 2), whole blood, geometric mean, read-out: AUClast)?
The AUC(0-t) was 14300 µg·h/mL.

And the half-life (whole blood, po, 100 mg, HV single oral 100 mg (Cohort 2), whole blood, geometric mean)?
Its half-life is 698 h.

What about the Cmax (whole blood, po, 200 mg, HV single oral 200 mg (Cohort 3), geometric mean) of the same compound?
Its Cmax is 34.2 µg/mL.

And the AUC(0-t) (whole blood, po, 200 mg, HV single oral 200 mg (Cohort 3), whole blood, geometric mean, read-out: AUClast)?
Its AUC(0-t) is 28600 µg·h/mL.

And the half-life (whole blood, po, 200 mg, HV single oral 200 mg (Cohort 3), whole blood, geometric mean)?
The half-life was 677 h.

And the Cmax (whole blood, po, 400 mg, HV single oral 400 mg (Cohort 5), geometric mean)?
The Cmax was 87.6 µg/mL.

And the AUC(0-t) (whole blood, po, 400 mg, HV single oral 400 mg (Cohort 5), whole blood, geometric mean, read-out: AUClast)?
The AUC(0-t) was 62200 µg·h/mL.

What about the half-life (whole blood, po, 400 mg, HV single oral 400 mg (Cohort 5), whole blood, geometric mean) of the same compound?
The half-life was 609 h.

And the Cmax (whole blood, po, 800 mg, HV single oral 800 mg (Cohort 6), geometric mean)?
The Cmax was 149 µg/mL.

What about the AUC(0-t) (whole blood, po, 800 mg, HV single oral 800 mg (Cohort 6), whole blood, geometric mean, read-out: AUClast) of the same compound?
The AUC(0-t) was 103000 µg·h/mL.

And the half-life (whole blood, po, 800 mg, HV single oral 800 mg (Cohort 6), whole blood, geometric mean)?
The half-life was 625 h.

And the Cmax (whole blood, po, 1400 mg, HV single oral 1400 mg (Cohort 7), geometric mean)?
Its Cmax is 230 µg/mL.

And the AUC(0-t) (whole blood, po, 1400 mg, HV single oral 1400 mg (Cohort 7), whole blood, geometric mean, read-out: AUClast)?
The AUC(0-t) was 192000 µg·h/mL.

What about the half-life (whole blood, po, 1400 mg, HV single oral 1400 mg (Cohort 7), whole blood, geometric mean) of the same compound?
The half-life was 656 h.

And the Cmax (whole blood, po, 2200 mg, HV single oral 2200 mg (Cohort 8), geometric mean)?
The Cmax was 387 µg/mL.

What about the AUC(0-t) (whole blood, po, 2200 mg, HV single oral 2200 mg (Cohort 8), whole blood, geometric mean, read-out: AUClast) of the same compound?
The AUC(0-t) was 264000 µg·h/mL.

What about the half-life (whole blood, po, 2200 mg, HV single oral 2200 mg (Cohort 8), whole blood, geometric mean) of the same compound?
Its half-life is 590 h.

What about the Tmax (HV single 50 mg, whole blood) of the same compound?
The Tmax was 24 h.

What about the Tmax (HV single 100 mg, whole blood) of the same compound?
The Tmax was 24 h.

What about the Tmax (HV single 200 mg, whole blood) of the same compound?
The Tmax was 8 h.

And the Tmax (HV single 400 mg, whole blood)?
Its Tmax is 8 h.

What about the Tmax (HV single 800 mg, whole blood) of the same compound?
Its Tmax is 16 h.

What about the Tmax (HV single 1400 mg, whole blood) of the same compound?
Its Tmax is 12 h.

What about the Tmax (HV single 2200 mg, whole blood) of the same compound?
The Tmax was 24 h.

And the AUC(0-inf) (HV single oral 50 mg (Cohort 1), plasma, geometric mean)?
Its AUC(0-inf) is 34.2 µg·h/mL.

And the Tmax (HV single oral 50 mg (Cohort 1), plasma)?
The Tmax was 0.75 h.

What about the AUC(0-inf) (HV single oral 50 mg (Cohort 1), red blood cells (calculated conc.), geometric mean) of the same compound?
The AUC(0-inf) was 18100 µg·h/mL.

What about the Tmax (HV single oral 50 mg (Cohort 1), red blood cells (conc. calculated from blood, plasma, hematocrit)) of the same compound?
The Tmax was 24 h.

What about the AUC(0-inf) (HV single oral 50 mg (Cohort 1), whole blood, geometric mean) of the same compound?
Its AUC(0-inf) is 7490 µg·h/mL.

What about the Tmax (HV single oral 50 mg (Cohort 1), whole blood) of the same compound?
Its Tmax is 24 h.

And the AUC(0-inf) (HV single oral 100 mg (Cohort 2), plasma, geometric mean)?
The AUC(0-inf) was 74.5 µg·h/mL.

And the Tmax (HV single oral 100 mg (Cohort 2), plasma)?
Its Tmax is 1 h.

What about the AUC(0-inf) (HV single oral 100 mg (Cohort 2), red blood cells (calculated conc.), geometric mean) of the same compound?
Its AUC(0-inf) is 38500 µg·h/mL.

And the Tmax (HV single oral 100 mg (Cohort 2), red blood cells (calculated conc.))?
Its Tmax is 24 h.

What about the AUC(0-inf) (HV single oral 100 mg (Cohort 2), whole blood, geometric mean) of the same compound?
Its AUC(0-inf) is 15900 µg·h/mL.

What about the Tmax (HV single oral 100 mg (Cohort 2), whole blood) of the same compound?
The Tmax was 24 h.

What about the AUC(0-inf) (HV single oral 200 mg (Cohort 3), plasma, geometric mean) of the same compound?
Its AUC(0-inf) is 152 µg·h/mL.

What about the Tmax (HV single oral 200 mg (Cohort 3), plasma) of the same compound?
The Tmax was 1 h.

What about the AUC(0-inf) (HV single oral 200 mg (Cohort 3), red blood cells (calculated conc.), geometric mean) of the same compound?
Its AUC(0-inf) is 71200 µg·h/mL.

What about the Tmax (HV single oral 200 mg (Cohort 3), red blood cells (calculated conc.)) of the same compound?
Its Tmax is 8 h.

What about the AUC(0-inf) (HV single oral 200 mg (Cohort 3), whole blood, geometric mean) of the same compound?
Its AUC(0-inf) is 31600 µg·h/mL.

And the Tmax (HV single oral 200 mg (Cohort 3), whole blood)?
The Tmax was 8 h.

What about the AUC(0-inf) (HV single oral 400 mg (Cohort 5), plasma, geometric mean) of the same compound?
The AUC(0-inf) was 361 µg·h/mL.

What about the Tmax (HV single oral 400 mg (Cohort 5), plasma) of the same compound?
The Tmax was 1 h.

And the AUC(0-inf) (HV single oral 400 mg (Cohort 5), red blood cells (calculated conc.), geometric mean)?
Its AUC(0-inf) is 163000 µg·h/mL.

And the Tmax (HV single oral 400 mg (Cohort 5), red blood cells (calculated conc.))?
Its Tmax is 10 h.

And the AUC(0-inf) (HV single oral 400 mg (Cohort 5), whole blood, geometric mean)?
Its AUC(0-inf) is 67200 µg·h/mL.

And the Tmax (HV single oral 400 mg (Cohort 5), whole blood)?
The Tmax was 8 h.

What about the AUC(0-inf) (HV single oral 800 mg (Cohort 6), plasma, geometric mean) of the same compound?
The AUC(0-inf) was 623 µg·h/mL.

What about the Tmax (HV single oral 800 mg (Cohort 6), plasma) of the same compound?
The Tmax was 2.5 h.

What about the AUC(0-inf) (HV single oral 800 mg (Cohort 6), red blood cells (calculated conc.), geometric mean) of the same compound?
The AUC(0-inf) was 266000 µg·h/mL.

What about the Tmax (HV single oral 800 mg (Cohort 6), red blood cells (calculated conc.)) of the same compound?
Its Tmax is 36 h.

And the AUC(0-inf) (HV single oral 800 mg (Cohort 6), whole blood, geometric mean)?
Its AUC(0-inf) is 111000 µg·h/mL.

And the Tmax (HV single oral 800 mg (Cohort 6), whole blood)?
Its Tmax is 16 h.

And the AUC(0-inf) (HV single oral 1400 mg (Cohort 7), plasma, geometric mean)?
The AUC(0-inf) was 1080 µg·h/mL.

What about the Tmax (HV single oral 1400 mg (Cohort 7), plasma) of the same compound?
The Tmax was 2.5 h.

What about the AUC(0-inf) (HV single oral 1400 mg (Cohort 7), red blood cells (calculated conc.), geometric mean) of the same compound?
Its AUC(0-inf) is 499000 µg·h/mL.

And the Tmax (HV single oral 1400 mg (Cohort 7), red blood cells (calculated conc.))?
Its Tmax is 30 h.

What about the AUC(0-inf) (HV single oral 1400 mg (Cohort 7), whole blood, geometric mean) of the same compound?
Its AUC(0-inf) is 210000 µg·h/mL.

What about the Tmax (HV single oral 1400 mg (Cohort 7), whole blood) of the same compound?
The Tmax was 12 h.

And the AUC(0-inf) (HV single oral 2200 mg (Cohort 8), plasma, geometric mean)?
Its AUC(0-inf) is 1430 µg·h/mL.

And the Tmax (HV single oral 2200 mg (Cohort 8), plasma)?
The Tmax was 3.5 h.

And the AUC(0-inf) (HV single oral 2200 mg (Cohort 8), red blood cells (calculated conc.), geometric mean)?
Its AUC(0-inf) is 670000 µg·h/mL.

And the Tmax (HV single oral 2200 mg (Cohort 8), red blood cells (calculated conc.))?
The Tmax was 24 h.

And the AUC(0-inf) (HV single oral 2200 mg (Cohort 8), whole blood, geometric mean)?
Its AUC(0-inf) is 282000 µg·h/mL.

What about the Tmax (HV single oral 2200 mg (Cohort 8), whole blood) of the same compound?
The Tmax was 24 h.

What about the Tmax (healthy volunteers n=6, single 100 mg, plasma) of the same compound?
Its Tmax is 1 h.

From patent publication US20250041312A1, “METHODS OF ADMINISTERING A MODULATOR OF HEMOGLOBIN” (Global Blood Therapeutics, Inc., priority 2021, published 2025)
